These results are taken from PubChem BioAssay AID1259407 (Chemical Carcinogenesis Research Information System (CCRIS), 2018).

Calls of active or inactive are those of the source. The rule behind the calls is not given here.

The test system of the series is CCRIS mutagenicity, Ames/micronucleus/aberration tests. In words: CCRIS mutagenicity studies.
[1] abbreviates: Test System: AMES SALMONELLA TYPHIMURIUM, Strain/Indicator: TA98, Metabolic Activation: NONE, Method: STANDARD PLATE.
[2] abbreviates: Test System: AMES SALMONELLA TYPHIMURIUM, Strain/Indicator: TA100, Metabolic Activation: NONE, Method: STANDARD PLATE.
[3] abbreviates: Test System: AMES SALMONELLA TYPHIMURIUM, Strain/Indicator: TA1535, Metabolic Activation: NONE, Method: STANDARD PLATE.
The mark [4] stands for this setting: Test System: AMES SALMONELLA TYPHIMURIUM, Strain/Indicator: TA1537, Metabolic Activation: NONE, Method: STANDARD PLATE.
[5] abbreviates: Test System: AMES SALMONELLA TYPHIMURIUM, Strain/Indicator: TA1538, Metabolic Activation: NONE, Method: STANDARD PLATE.
The mark [6] stands for this setting: Test System: AMES SALMONELLA TYPHIMURIUM, Strain/Indicator: TA98, Metabolic Activation: S-9, Method: STANDARD PLATE.
The mark [7] stands for this setting: Test System: AMES SALMONELLA TYPHIMURIUM, Strain/Indicator: TA100, Metabolic Activation: S-9, Method: STANDARD PLATE.
The mark [8] stands for this setting: Test System: AMES SALMONELLA TYPHIMURIUM, Strain/Indicator: TA1535, Metabolic Activation: S-9, Method: STANDARD PLATE.
Where [9] appears, read: Test System: AMES SALMONELLA TYPHIMURIUM, Strain/Indicator: TA1537, Metabolic Activation: S-9, Method: STANDARD PLATE.
Setting [10] is: Test System: AMES SALMONELLA TYPHIMURIUM, Strain/Indicator: TA1538, Metabolic Activation: S-9, Method: STANDARD PLATE.
The mark [11] stands for this setting: Test System: E. COLI, Strain/Indicator: WP2 UVRA, Metabolic Activation: NONE, Method: STANDARD PLATE.

Turning to `Nc1ccc(S(=O)(=O)Nc2nccs2)cc1`, the mutagenic call is “inactive; negative” (Test System: AMES SALMONELLA TYPHIMURIUM, Strain/Indicator: TA98, Metabolic Activation: HAMSTER, LIVER, S-9, AROCLOR 1254, Method: STANDARD PLATE); “inactive; negative” under setting [1]; “inactive; negative” (Test System: AMES SALMONELLA TYPHIMURIUM, Strain/Indicator: TA98, Metabolic Activation: RAT, LIVER, S-9, AROCLOR 1254, Method: STANDARD PLATE); “inactive; negative” (Test System: AMES SALMONELLA TYPHIMURIUM, Strain/Indicator: TA100, Metabolic Activation: HAMSTER, LIVER, S-9, AROCLOR 1254, Method: STANDARD PLATE); “inactive; negative” under setting [2]; “inactive; negative” (Test System: AMES SALMONELLA TYPHIMURIUM, Strain/Indicator: TA100, Metabolic Activation: RAT, LIVER, S-9, AROCLOR 1254, Method: STANDARD PLATE). In addition, the mutagenic call was “inactive; negative” (Test System: AMES SALMONELLA TYPHIMURIUM, Strain/Indicator: TA1535, Metabolic Activation: HAMSTER, LIVER, S-9, AROCLOR 1254, Method: STANDARD PLATE); “inactive; negative” under setting [3]; “inactive; negative” (Test System: AMES SALMONELLA TYPHIMURIUM, Strain/Indicator: TA1535, Metabolic Activation: RAT, LIVER, S-9, AROCLOR 1254, Method: STANDARD PLATE); “inactive; negative” (Test System: AMES SALMONELLA TYPHIMURIUM, Strain/Indicator: TA1537, Metabolic Activation: HAMSTER, LIVER, S-9, AROCLOR 1254, Method: STANDARD PLATE); “inactive; negative” under setting [4]; “inactive; negative” (Test System: AMES SALMONELLA TYPHIMURIUM, Strain/Indicator: TA1537, Metabolic Activation: RAT, LIVER, S-9, AROCLOR 1254, Method: STANDARD PLATE). The mutagenic call (Test System: AMES SALMONELLA TYPHIMURIUM, Strain/Indicator: TA1538, Metabolic Activation: HAMSTER, LIVER, S-9, AROCLOR 1254, Method: STANDARD PLATE) is “inactive; negative”; the mutagenic call under setting [5] is “inactive; negative”; the mutagenic call (Test System: AMES SALMONELLA TYPHIMURIUM, Strain/Indicator: TA1538, Metabolic Activation: RAT, LIVER, S-9, AROCLOR 1254, Method: STANDARD PLATE) was “inactive; negative”; the mutagenic call (Test System: MOUSE LYMPHOMA, Strain/Indicator: L5178Y (TK+/TK-), Metabolic Activation: NONE, Method: SUSPENSION/PLATE) was “inactive; negative. reevaluation of results: negative”; the mutagenic call (Test System: MOUSE LYMPHOMA, Strain/Indicator: L5178Y (TK+/TK-), Metabolic Activation: RAT, LIVER, S-9, AROCLOR 1254, Method: SUSPENSION/PLATE) is “inactive; negative. reevaluation of results: negative”.

`C[n+]1ccccc1-c1cccc[n+]1C`: the mutagenic call was “active; positive” (Test System: AMES SALMONELLA TYPHIMURIUM, Strain/Indicator: TA97, Metabolic Activation: RAT, LIVER, S-9, PHENOBARBITAL, Method: STANDARD PLATE); “active; positive” (Test System: AMES SALMONELLA TYPHIMURIUM, Strain/Indicator: TA98, Metabolic Activation: RAT, LIVER, S-9, PHENOBARBITAL, Method: STANDARD PLATE); “active; positive” (Test System: AMES SALMONELLA TYPHIMURIUM, Strain/Indicator: TA100, Metabolic Activation: RAT, LIVER, S-9, PHENOBARBITAL, Method: STANDARD PLATE); “inactive; negative” (Test System: AMES SALMONELLA TYPHIMURIUM, Strain/Indicator: TA1535, Metabolic Activation: RAT, LIVER, S-9, PHENOBARBITAL, Method: STANDARD PLATE); “inactive; negative” (Test System: AMES SALMONELLA TYPHIMURIUM, Strain/Indicator: TA1537, Metabolic Activation: RAT, LIVER, S-9, PHENOBARBITAL, Method: STANDARD PLATE); “inactive; negative” (Test System: AMES SALMONELLA TYPHIMURIUM, Strain/Indicator: TA1538, Metabolic Activation: RAT, LIVER, S-9, PHENOBARBITAL, Method: STANDARD PLATE).

For the compound `CC(C)Oc1ccc2c(=O)c(-c3ccccc3)coc2c1`, the mutagenic call is “inactive; negative” under setting [1]; “inactive; negative” under setting [6]; “inactive; negative” under setting [2]; “inactive; negative” under setting [7]; “inactive; negative” under setting [3]; “inactive; negative” under setting [8]. In addition, the mutagenic call under setting [4] is “inactive; negative”; the mutagenic call under setting [9] was “inactive; negative”; the mutagenic call under setting [5] was “inactive; negative”; the mutagenic call under setting [10] is “inactive; negative”; the mutagenic call under setting [11] is “inactive; negative”; the mutagenic call (Test System: E. COLI, Strain/Indicator: WP2 UVRA, Metabolic Activation: S-9, Method: STANDARD PLATE) was “inactive; negative”.

Consider `NC(=O)c1cc(N2CC2)c([N+](=O)[O-])cc1[N+](=O)[O-]`, for which the mutagenic call was “inactive; negative” under setting [1]; “active; positive” under setting [2]; “active; positive” (Test System: E. COLI, Strain/Indicator: NFR-343, Metabolic Activation: NONE, Method: AGAR OVERLAY); “active; positive” (Test System: E. COLI, Strain/Indicator: NFR-343, Metabolic Activation: NONE, Method: STANDARD PLATE); “active; positive” (Test System: E. COLI, Strain/Indicator: NFR-343, Metabolic Activation: RAT, LIVER, S-9, AROCLOR 1254, Method: STANDARD PLATE); “active; positive” (Test System: E. COLI, Strain/Indicator: WP2, Metabolic Activation: NONE, Method: STANDARD PLATE). Also, the mutagenic call runs as follows: (Test System: E. COLI, Strain/Indicator: WP2 UVRA (PKM101), Metabolic Activation: NONE, Method: STANDARD PLATE) “active; positive”; (Test System: E. COLI, Strain/Indicator: WP2 UVRA, Metabolic Activation: NONE, Method: AGAR OVERLAY) “active; positive”; under setting [11], “active; positive”; (Test System: E. COLI, Strain/Indicator: WP2 UVRA, Metabolic Activation: RAT, LIVER, S-9, AROCLOR 1254, Method: STANDARD PLATE) “active; positive”.

On to `C[n+]1ccn(COCCC(C)(C)[N+](=O)[O-])c1/C=N/O`, for which the mutagenic call by setting is: (Test System: AMES SALMONELLA TYPHIMURIUM, Strain/Indicator: TA97, Metabolic Activation: NONE, Method: STANDARD PLATE) “inactive; negative”; (Test System: AMES SALMONELLA TYPHIMURIUM, Strain/Indicator: TA97, Metabolic Activation: S-9, Method: STANDARD PLATE) “inactive; negative”; under setting [1], “inactive; negative”; under setting [6], “inactive; negative”; under setting [2], “inactive; negative”; under setting [7], “inactive; negative”. In addition, the mutagenic call (Test System: AMES SALMONELLA TYPHIMURIUM, Strain/Indicator: TA104, Metabolic Activation: NONE, Method: STANDARD PLATE) was “inactive; negative”; the mutagenic call (Test System: AMES SALMONELLA TYPHIMURIUM, Strain/Indicator: TA104, Metabolic Activation: S-9, Method: STANDARD PLATE) was “inactive; negative”; the mutagenic call under setting [3] is “inactive; negative”; the mutagenic call under setting [8] was “inactive; negative”; the mutagenic call under setting [4] was “inactive; negative”; the mutagenic call under setting [9] was “inactive; negative”. For the same compound, the mutagenic call is, setting by setting: under setting [5], “inactive; negative”; under setting [10], “inactive; negative”.
